Target: T1, α1β3γ2 GABAA receptor, γ2R408K variant (Homo sapiens, UniProt P14867+P18507+P28472, R408K)
T1 construct: expressed in transfected cells; host or cells: HEK293T
T1 sequence (P14867 28-456): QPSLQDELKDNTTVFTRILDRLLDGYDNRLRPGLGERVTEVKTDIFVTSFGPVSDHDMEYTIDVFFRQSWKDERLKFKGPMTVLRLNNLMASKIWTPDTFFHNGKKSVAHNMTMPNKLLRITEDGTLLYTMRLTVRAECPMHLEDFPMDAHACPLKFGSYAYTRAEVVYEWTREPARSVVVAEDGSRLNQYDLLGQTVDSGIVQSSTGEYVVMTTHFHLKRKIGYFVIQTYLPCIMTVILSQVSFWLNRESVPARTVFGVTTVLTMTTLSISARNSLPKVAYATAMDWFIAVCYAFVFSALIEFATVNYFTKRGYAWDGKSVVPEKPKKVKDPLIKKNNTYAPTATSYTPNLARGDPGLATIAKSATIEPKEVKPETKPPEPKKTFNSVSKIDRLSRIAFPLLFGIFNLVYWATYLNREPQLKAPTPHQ
T1 sequence (P28472 26-473 isoform P28472-2): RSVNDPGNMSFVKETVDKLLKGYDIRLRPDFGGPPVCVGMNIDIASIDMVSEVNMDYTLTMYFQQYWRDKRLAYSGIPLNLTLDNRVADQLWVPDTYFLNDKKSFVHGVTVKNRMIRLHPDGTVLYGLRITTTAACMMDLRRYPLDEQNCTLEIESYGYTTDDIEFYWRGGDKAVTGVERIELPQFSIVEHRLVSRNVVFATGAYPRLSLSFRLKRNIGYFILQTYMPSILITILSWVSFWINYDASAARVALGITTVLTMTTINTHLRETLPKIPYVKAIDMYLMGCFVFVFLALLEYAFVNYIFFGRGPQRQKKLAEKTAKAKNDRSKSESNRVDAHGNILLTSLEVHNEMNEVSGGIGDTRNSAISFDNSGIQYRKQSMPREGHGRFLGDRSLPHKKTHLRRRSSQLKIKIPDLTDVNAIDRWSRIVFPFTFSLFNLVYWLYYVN
T1 sequence (P18507 40-475 R408K): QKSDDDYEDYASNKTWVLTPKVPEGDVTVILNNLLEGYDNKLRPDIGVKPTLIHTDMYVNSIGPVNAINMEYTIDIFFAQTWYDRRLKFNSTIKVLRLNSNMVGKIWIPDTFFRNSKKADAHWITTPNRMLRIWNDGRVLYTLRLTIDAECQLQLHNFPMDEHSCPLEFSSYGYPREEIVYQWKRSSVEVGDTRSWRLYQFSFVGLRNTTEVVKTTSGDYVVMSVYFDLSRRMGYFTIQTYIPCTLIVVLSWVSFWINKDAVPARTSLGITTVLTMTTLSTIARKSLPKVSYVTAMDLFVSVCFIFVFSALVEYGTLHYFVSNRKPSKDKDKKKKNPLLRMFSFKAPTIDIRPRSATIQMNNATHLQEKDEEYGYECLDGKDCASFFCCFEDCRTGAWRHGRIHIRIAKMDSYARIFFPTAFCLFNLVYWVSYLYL
Assay: Automated patch clamp of GABA-elicited currents (SyncroPatch 384PE), γ2R408K
Assay type: cell-based
Details: 1 mM GABA for 5 ms, HEK293T, mean
Procedure: The coding sequences of human α1 (GABRA1, NM_000806), β3 (GABRB3, NM_021912), and γ2 (GABRG2, NM_198904.2) GABAAR subunits were subcloned into the pcDNA3.1 expression vectors (Invitrogen, Waltham, MA, USA).
HEK293T cells (ATCC, CRL-11268) were cultured at 37 °C in a humidified 5% CO2 incubator and maintained in Dulbecco’s modified Eagle’s medium (Invitrogen) supplemented with 10% fetal bovine serum (Life Technologies, Carlsbad, CA, USA), and 100 IU/mL of penicillin/streptomycin (Life Technologies). For the expression experiments, 4 × 10^5 cells were transfected using polyethylenimine (PEI) reagent (40 kD, Polysciences, Warrington, PA, USA) at a DNA: to transfection reagent ratio of 1:2.5 and harvested 36 h after transfection. To express WT and variant α1β3γ2 receptors, a total of 3 µg of α1, β3, and γ2 (WT or mutant) subunit cDNAs were transfected at a ratio of 1:1:1 into 60 mm culture dishes. For the mock-transfected condition, an empty pcDNA3.1 vector was added for a final cDNA transfection amount of 3 μg. For the electrophysiology experiments, 2.5 × 10^5 cells were plated in 100 mm culture dishes and transfected after 24 h with 3 μg of cDNA of each α1, β3, γ2 (wild-type or mutant) subunit, using X-tremeGENE HP DNA transfection Reagent (Roche Diagnostics, Basel, Switzerland), following the manufacturer’s protocol. Recordings were obtained forty-eight hours after transfection.
Whole-cell patch clamp recordings were conducted according to the manufacturer’s standard procedure for the SyncroPatch 384 [31]. […] Using PatchControl 384, electrophysiological parameters, such as seal resistance, capacitance, and series resistance, were determined for each well after the application of a test pulse, and subsequently monitored over time. […] The currents were normalized to the maximal response of each well, and the concentration–response curves were calculated from single-point additions. The EC50 values for each variant or wild-type receptor were calculated across multiple wells for each experimental condition.

## NCCCC(=O)O [GABA, γ-aminobutyric acid]
-80 mV
  Deactivation: 165.4 ms
  IMAX (maximal GABA-evoked peak current): 0.22 nA
10–90% rise time
  Rise Time: 40.23 ms

From paper PMC10046037, “GABRG2 Variants Associated with Febrile Seizures” (Biomolecules, 2023)
